Source: patent publication US20120059162A1, “FUSED IMIDAZOLE DERIVATIVE HAVING TTK INHIBITORY ACTION” (Oncotherapy Science, Inc., priority 2009, published 2012)
Where two headings read alike, the source gives them in different places.

How the values were obtained:
A549 = A549 assay: screening of cancer cell growth inhibiting compound; format: cell-based; details: Homo sapiens, A549 cells, read-out: A549 IC50
In short: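 A549 cells (1×10^4/ml) in D-MEM with 10% FBS were pre-incubated one day at 37 °C, then exposed to compound dilutions for three further days. Viable cell number read by WST-8 (1–4 hours), absorbance 450 nm (reference 620 nm); inhibition calculated relative to untreated wells.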

TTK = target: T1, TTK (Homo sapiens, UniProt P33981); experiment: TTK assay: screening of TTK kinase activity suppressing action using p38 MAPK peptide; format: biochemical; details: read-out: TTK IC50
T1 sequence (P33981 1-857): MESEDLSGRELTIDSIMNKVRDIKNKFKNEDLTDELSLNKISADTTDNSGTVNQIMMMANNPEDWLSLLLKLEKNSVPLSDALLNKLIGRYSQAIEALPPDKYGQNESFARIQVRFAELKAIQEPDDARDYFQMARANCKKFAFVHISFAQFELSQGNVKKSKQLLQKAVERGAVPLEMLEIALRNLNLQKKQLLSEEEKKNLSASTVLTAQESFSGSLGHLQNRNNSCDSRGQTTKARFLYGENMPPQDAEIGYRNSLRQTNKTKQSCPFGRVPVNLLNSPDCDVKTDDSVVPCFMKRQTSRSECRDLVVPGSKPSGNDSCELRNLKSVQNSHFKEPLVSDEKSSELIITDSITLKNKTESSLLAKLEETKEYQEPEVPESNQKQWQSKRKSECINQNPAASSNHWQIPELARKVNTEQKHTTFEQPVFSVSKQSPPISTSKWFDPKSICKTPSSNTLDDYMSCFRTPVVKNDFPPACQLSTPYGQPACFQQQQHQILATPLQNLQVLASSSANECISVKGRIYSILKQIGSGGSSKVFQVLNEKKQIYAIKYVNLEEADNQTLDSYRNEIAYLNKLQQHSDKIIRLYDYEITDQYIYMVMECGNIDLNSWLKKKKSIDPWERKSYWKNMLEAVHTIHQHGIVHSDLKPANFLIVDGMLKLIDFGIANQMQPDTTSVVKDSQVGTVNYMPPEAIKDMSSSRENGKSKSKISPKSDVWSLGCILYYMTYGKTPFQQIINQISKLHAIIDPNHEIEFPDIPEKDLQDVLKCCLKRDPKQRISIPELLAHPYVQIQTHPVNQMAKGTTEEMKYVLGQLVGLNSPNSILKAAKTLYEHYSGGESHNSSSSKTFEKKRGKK
In short: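 TTK (4 μg/ml in enzyme solution) mixed with p38 MAPK peptide and ATP (each 60 μM in substrate solution) in Tris-HCl pH 7.5 with MgCl2, DTT, Na3VO4, β-glycerophosphate, BSA. Reaction aliquot captured on NeutrAvidin plate, detected with Eu-labelled anti-mouse IgG by time-resolved fluorescence; inhibition relative to no-compound signal.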

| Structure (SMILES) | IC50 (A549; 72 h, three days, WST-8) [µM] | IC50 (TTK; p38 MAPK peptide substrate) [µM] | IC50 (A549; values given as IC50 intervals) [µM] | IC50 (TTK) [µM] |
| --- | --- | --- | --- | --- |
| O=C(NC1CC1)c1ccc(-c2cnc3c(NCC(F)(F)F)cc(NC4CCCCC4)nn23)cc1 [Example 2-145] | 0.05 to 0.5 | 0.003 | – | – |
| O=C(NC1CC1)c1ccc(-c2cnc3c(NCC4CCOCC4)cc(NC4CCC(F)(F)CC4)nn23)cc1 [Example 2-67] | 0.05 to 0.5 | 0.0037 | – | – |
| C#CC1(Nc2cc(NCC3CCOCC3)c3ncc(-c4ccc(C(=O)NC5CC5)cc4)n3n2)CCCCC1 [Example 2-77] | 0.5 to 1 | 0.0213 | – | – |
| O=C(NC1CC1)c1ccc(-c2cnc3c(NCC4CCOCC4)cc(NCC4CCCCC4)nn23)cc1 [Example 2-16] | 0.05 to 0.5 | 0.0048 | – | – |
| Cn1cncc1CNc1cc(NC2CCCCC2)nn2c(-c3ccc(C(=O)NC4CC4)cc3)cnc12 [Example 2-148] | 0.5 to 1 | 0.0039 | – | – |
| N#Cc1ccc(-c2cn3c(-c4ccc(C(=O)NC5CC5)cc4)cnc3c(NCCS(=O)(=O)N3CCCC3)n2)cc1 [Example 1-224] | 0.5 to 1 | 0.0183 | – | – |
| CC1(Oc2cc(NCC3CCOCC3)c3ncc(-c4ccc(C(=O)NC5CC5)cc4)n3n2)CCCC1 [Example 2-192] | – | – | 0.05 to 0.5 | 0.0021 |
| O=C(NC1CC1)c1ccc(-c2cnc3c(NCC45CCN(CC4)CC5)cc(NC4CCCCC4)nn23)cc1 [Example 2-153] | 0.05 to 0.5 | 0.0075 | – | – |
| CCCNc1cc(NCC2CCOCC2)c2ncc(-c3ccc(C(=O)NC4CC4)cc3)n2n1 [Example 2-21] | 0.05 to 0.5 | 0.007 | – | – |
| CC1(Nc2cc(NCC3CCOCC3)c3ncc(-c4ccc(C(=O)NC5CC5)cc4)n3n2)CCCC1 [Example 2-75] | ≤ 0.05 | 0.0036 | – | – |
| O=C(NC1CC1)c1ccc(-c2cnc3c(NCc4nccs4)cc(NC4CCCCC4)nn23)cc1 [Example 2-160] | 0.05 to 0.5 | 0.0031 | – | – |
| Nc1ccc(Oc2cc(NCC3CCOCC3)c3ncc(-c4ccc(C(=O)NC5CC5)cc4)n3n2)cc1 [Example 2-92] | 0.05 to 0.5 | 0.004 | – | – |
| O=C(NC1CC1)c1ccc(-c2cnc3c(NCc4cccnc4)cc(NC4CCCCC4)nn23)cc1 [Example 2-156] | 0.05 to 0.5 | 0.0044 | – | – |
| COc1ccc(Oc2cc(NCC3CCOCC3)c3ncc(-c4ccc(C(=O)NC5CC5)cc4)n3n2)c(F)c1 [Example 2-112] | ≤ 0.05 | 0.0027 | – | – |
| O=C(NC1CC1)c1ccc(-c2cnc3c(NCC4CC4)cc(NC4CCCCC4)nn23)cc1 [Example 2-132] | 0.05 to 0.5 | 0.0068 | – | – |
| O=C(NC1CC1)c1ccc(-c2cnc3c(NCC4CCOCC4)cc(N[C@H]4CC[C@H](O)CC4)nn23)cc1 [Example 2-43] | 0.5 to 1 | 0.0125 | – | – |
| C#CC(C)(C)Nc1cc(NCC2CCOCC2)c2ncc(-c3ccc(C(=O)NC4CC4)cc3)n2n1 [Example 2-85] | 1 to 10 | 0.004 | – | – |
| COc1cccc(Oc2cc(NCC3CCOCC3)c3ncc(-c4ccc(C(=O)NC5CC5)cc4)n3n2)c1 [Example 2-109] | 0.05 to 0.5 | 0.0033 | – | – |
| N#Cc1ccc(-c2cc(NCC3CCOCC3)c3ncc(-c4ccc(C(=O)NC5CC5)cc4)n3n2)c(Cl)c1 [Example 2-206] | – | – | 0.05 to 0.5 | 0.0028 |
| N#Cc1ccc(-c2cn3c(-c4ccc(C(=O)NC5CC5)cc4)cnc3c(NCCCCO)n2)cc1 [Example 1-238] | 0.05 to 0.5 | 0.0143 | – | – |
| Cc1cc(C(=O)NC2CC2)ccc1-c1cnc2c(NCC3CCOCC3)cc(NC3CCCC3)nn12 [Example 2-226] | – | – | 0.05 to 0.5 | 0.0069 |
| O=C(NC1CC1)c1ccc(-c2cnc3c(NCC4CCOCC4)cc(NC4CCCC4)nn23)c(F)c1 [Example 2-227] | – | – | 0.05 to 0.5 | 0.0035 |

| Structure (SMILES) | IC50 (A549; 72 h, three days, WST-8) [µM] | IC50 (TTK; p38 MAPK peptide substrate) [µM] | IC50 (A549; values given as IC50 intervals) [µM] | IC50 (TTK) [µM] |
| --- | --- | --- | --- | --- |
| Cc1cc(CNc2cc(NC3CCCCC3)nn3c(-c4ccc(C(=O)NC5CC5)cc4)cnc23)no1 [Example 2-158] | 0.05 to 0.5 | 0.0032 | – | – |
| O=C(NC1CC1)c1ccc(-c2cnc3c(NCC4CCOCC4)cc(N4CCCC4)nn23)cc1 [Example 2-53] | 1 to 10 | 0.0259 | – | – |
| CC(C)(Nc1cc(NCC2CCOCC2)c2ncc(-c3ccc(C(=O)NC4CC4)c(F)c3)n2n1)C(F)(F)F [Example 2-219] | – | – | ≤ 0.05 | 0.0043 |
| Nc1cc(C(=O)NC2CC2)ccc1-c1cnc2c(NCC3CCOCC3)cc(NC3CCCC3)nn12 [Example 2-225] | – | – | 0.05 to 0.5 | 0.0097 |
| CC(Oc1cc(NCC2CCOCC2)c2ncc(-c3ccc(C(=O)NC4CC4)cc3)n2n1)c1ccccc1 (centres unmarked) [Example 2-174] | – | – | 0.05 to 0.5 | 0.0141 |
| CC1CCCCC1Nc1cc(NCC2CCOCC2)c2ncc(-c3ccc(C(=O)NC4CC4)cc3)n2n1 (centres unmarked) [Example 2-63] | ≤ 0.05 | 0.0029 | – | – |
| CC1(C)CCC(Oc2cc(NCC3CCOCC3)c3ncc(-c4ccc(C(=O)NC5CC5)cc4)n3n2)CC1 [Example 2-187] | – | – | 0.5 to 1 | 0.0078 |
| O=C(NC1CC1)c1ccc(-c2cnc3c(NCc4ccc(=O)[nH]c4)cc(NC4CCCCC4)nn23)cc1 [Example 2-165] | 1 to 10 | 0.0056 | – | – |
| O=C(NC1CC1)c1ccc(-c2cnc3c(NCC4CCOCC4)cc(Nc4ncccc4O)nn23)cc1 [Example 2-35] | 1 to 10 | 0.0193 | – | – |
| O=C(NC1CC1)c1ccc(-c2cnc3c(NCC4CCOCC4)cc(NC45CC6CC(CC4C6)C5)nn23)cc1 [Example 2-37] | ≤ 0.05 | 0.0027 | – | – |
| CCC(C)CNc1cc(NC2CCCCC2)nn2c(-c3ccc(C(=O)NC4CC4)cc3)cnc12 (centres unmarked) [Example 2-137] | 0.05 to 0.5 | 0.0073 | – | – |
| C[C@@H]1CN(c2cc(NCC3CCOCC3)c3ncc(-c4ccc(C(=O)NC5CC5)cc4)n3n2)C[C@H](C)O1 [Example 2-41] | 0.05 to 0.5 | 0.0101 | – | – |
| O=C(NC1CC1)c1ccc(-c2cnc3c(NCC4CCOCC4)c(Cl)c(NC4CCCC4)nn23)cc1 [Example 2-218] | – | – | 0.5 to 1 | 0.0126 |
| N#Cc1ccc(-c2cn3c(-c4ccc(C(=O)NC5CC5)cc4)cnc3c(NCCOCCOCCO)n2)cc1 [Example 1-237] | 1 to 10 | 0.0399 | – | – |
| O=C(NC1CC1)c1ccc(-c2cnc3c(NCC4CCOCC4)cc(OC4CCC(C(F)(F)F)CC4)nn23)cc1 (centres unmarked) [Example 2-186] | – | – | 0.5 to 1 | 0.0068 |
| COc1ccccc1Oc1cc(NCC2CCOCC2)c2ncc(-c3ccc(C(=O)NC4CC4)cc3)n2n1 [Example 2-95] | 0.05 to 0.5 | 0.0025 | – | – |
| N#Cc1ccc(-c2cn3c(-c4ccc(C(=O)NC5CC5)cc4)cnc3c(NCCN3CCOCC3)n2)cc1 [Example 1-216] | 0.05 to 0.5 | 0.0204 | – | – |
| N#CC1CCN(c2cc(NCC3CCOCC3)c3ncc(-c4ccc(C(=O)NC5CC5)cc4)n3n2)CC1 [Example 2-23] | 0.05 to 0.5 | 0.0088 | – | – |
| O=C(NC1CC1)c1ccc(-c2cnc3c(NCC4CCOCC4)cc(N4CCCC4=O)nn23)cc1 [Example 2-39] | 0.05 to 0.5 | 0.022 | – | – |
| CCC(CC)CNc1cc(NC2CCCCC2)nn2c(-c3ccc(C(=O)NC4CC4)cc3)cnc12 [Example 2-133] | 0.05 to 0.5 | 0.0068 | – | – |
| N#Cc1ccc(-c2cn3c(-c4ccc(C(=O)NC5CC5)cc4)cnc3c(NCCc3cccc(O)c3)n2)cc1 [Example 1-226] | 0.5 to 1 | 0.0171 | – | – |
